Values quoted from earlier work in PubChem BioAssay AID1259409 (Chemical Carcinogenesis Research Information System (CCRIS), 2018).

System: rodent chemically induced tumor inhibition, incidence and multiplicity
Assay: CCRIS tumor inhibitor studies

Structure (SMILES): CC(C)(O)/C=C/C(=O)[C@](C)(O)[C@H]1[C@H](O)C[C@@]2(C)[C@@H]3CC=C4[C@@H](C[C@H](O)[C@@H](O)C4(C)C)[C@]3(C)C(=O)C[C@]12C
- tumour outcome (control, treated, inhibition, significance) (Carcinogen: 7,12-DIMETHYLBENZ[A]ANTHRACENE, 57-97-6, Dose [Inhibitor]: 0, 85 NMOL IN 0.1 ML ACETONE APPLIED 1 HR PRIOR TO EACH PROMOTER DOSE 2/WK FOR 20 WK (STUDY DURATION: 21 WK), Route [Inhibitor]: DERMAL, Species: MOUSE, Strain/Sex: ICR/FEMALE, Target Tissue: Type of Lesion: SKIN: PAPILLOMA, Dose [Carcinogen]: 100 UG IN 0.1 ML ACETONE ONCE, Promoter: 12-O-TETRADECANOYLPHORBOL-13-ACETATE, 16561-29-8): 100%, 100%, 0%, not significant

Structure (SMILES): CCNC(=O)[C@@H]1CCCN1C(=O)[C@H](CCCN=C(N)N)NC(=O)[C@H](CC(C)C)NC(=O)[C@@H](CC(C)C)NC(=O)[C@H](Cc1ccc(O)cc1)NC(=O)[C@H](CO)NC(=O)[C@H](Cc1c[nH]c2ccccc12)NC(=O)[C@H](Cc1cnc[nH]1)NC(=O)[C@@H]1CCC(=O)N1
- tumour outcome (control, treated, inhibition, significance) (Carcinogen: N-BUTYL-N-(4-HYDROXYBUTYL)NITROSAMINE, 3817-11-6, Dose [Inhibitor]: 0, 1 MG/KG 1/4 WK FOR 11 WK BEGINNING POST CARCINOGEN TREATMENT (STUDY DURATION: 21 WK), Route [Inhibitor]: SUBCUTANEOUS, Species: RAT, Strain/Sex: WISTAR/MALE, Target Tissue: Type of Lesion: URINARY BLADDER:CARCINOMA, Dose [Carcinogen]: 0.05% IN DRINKING WATER FOR 10 WK, Promoter: NONE USED): 15/17 (88%), 10/18 (56%), 36%, p<0.05

Structure (SMILES): OCCOc1ccc(/C(=C(/CCCl)c2ccccc2)c2ccccc2)cc1
- tumour outcome (control, treated, inhibition, significance) (Carcinogen: 7,12-DIMETHYLBENZ[A]ANTHRACENE (DMBA) (57-97-6), Dose [Inhibitor]: 50 MG/KG/D FOR 37 WK (STUDY DURATION: 37 WK), Route [Inhibitor]: ORAL GAVAGE, Species: MOUSE, Strain/Sex: SENCAR/FEMALE, Target Tissue: Type of Lesion: MAMMARY: CARCINOMA, Dose [Carcinogen]: 20 UG/D FOR 6 WKS (STUDY DURATION: 37 WKS), Promoter: MEDROXYPROGESTERONE ACETATE (71-58-9)): 10/21 (48%); 1/18 (6%), 88%, p=0.003
- tumour outcome (control, treated, inhibition, significance) (Carcinogen: 7,12-DIMETHYLBENZ[A]ANTHRACENE (DMBA) [57-97-6], Dose [Inhibitor]: 50 MG/KG/D FOR 52 WK (STUDY DURATION: 52 WK), Route [Inhibitor]: ORAL GAVAGE, Species: MOUSE, Strain/Sex: SENCAR/FEMALE, Target Tissue: Type of Lesion: MAMMARY: CARCINOMA, Dose [Carcinogen]: 20 UG/D FOR 6 WKS, Promoter: MEDROXYPROGESTERONE ACETATE (71-58-9)): 13/23 (57%); 1/20 (5%), 91%, p=0.0003

Structure (SMILES): Cc1ncc(C[n+]2csc(CCO)c2C)c(N)n1
- tumour outcome (control, treated, inhibition, significance) (Carcinogen: 7,12-DIMETHYLBENZ[A]ANTHRACENE, 57-97-6, Dose [Inhibitor]: 0.2% IN DRINKING WATER DAILY STARTING 4 WK BEFORE CARCINOGEN TREATMENT AND CONTINUING FOR DURATION OF STUDY (STUDY DURAT, Route [Inhibitor]: ORAL, Species: MOUSE, Strain/Sex: 101/MALE, FEMALE, Target Tissue: Type of Lesion: SKIN: PAPILLOMA, Dose [Carcinogen]: 225 UG IN 0.15 ML ACETONE ONCE, Promoter: CROTON OIL, 8001-28-3): 17/19 (89%), 18/20 (90%), -1%, not calculated
- tumour outcome (control, treated, inhibition, significance) (Carcinogen: BENZO[A]PYRENE, 50-32-8, Dose [Inhibitor]: 2.5 MG 2/WK FOR 20 WK STARTING 4 WK BEFORE START OF CARCINOGEN TREATMENT PLUS 0.2% IN DRINKING WATER (STUDY DURATION: 22, Route [Inhibitor]: SUBCUTANEOUS, ORAL, Species: MOUSE, Strain/Sex: 101/MALE, FEMALE, Target Tissue: Type of Lesion: SKIN: PAPILLOMA, Dose [Carcinogen]: 0.2 ML OF 0.25% 2/WK FOR 20 WK, Promoter: NONE USED): 13/18 (72%), 5/8 (63%), 13%, not calculated
- tumour outcome (control, treated, inhibition, significance) (Carcinogen: BENZO[A]PYRENE, 50-32-8, Dose [Inhibitor]: 2.5 MG 2/WK FOR 20 WK STARTING 4 WK BEFORE START OF CARCINOGEN TREATMENT PLUS 0.2% IN DRINKING WATER (STUDY DURATION: 37, Route [Inhibitor]: SUBCUTANEOUS, ORAL, Species: MOUSE, Strain/Sex: 101/MALE, FEMALE, Target Tissue: Type of Lesion: SKIN: MALIGNANT TUMOR, Dose [Carcinogen]: 0.2 ML OF 0.25% 2/WK FOR 20 WK, Promoter: NONE USED): 12/18 (67%), 5/8 (63%), 6%, not calculated
- tumour outcome (control, treated, inhibition, significance) (Carcinogen: ETHYLNITROSOUREA, 759-73-9, Dose [Inhibitor]: 0, 500 MG/KG MIXED WITH STARCH 1:20 (WEIGHT: WEIGHT) IN DIET 5 D/WK FOR 10 MO (STUDY DURATION: 10 MO), Route [Inhibitor]: ORAL, Species: RAT, Strain/Sex: ALBINO/MALE,FEMALE, Target Tissue: Type of Lesion: BRAIN: GLIOMA OR ASTROCYTOMA, Dose [Carcinogen]: 75 MG/KG IN SALINE BY INTRAVENOUS INJECTION ONCE 21 D AFTER CONCEPTION): 21/40 (52%), 14/20 (70%), -35%, not calculated
- tumour outcome (control, treated, inhibition, significance) (Carcinogen: ETHYLNITROSOUREA, 759-73-9, Dose [Inhibitor]: 0, 500 MG/KG MIXED WITH STARCH 1:20 (WEIGHT: WEIGHT) IN DIET 5 D/WK FOR 10 MO (STUDY DURATION: 10 MO), Route [Inhibitor]: ORAL, Species: RAT, Strain/Sex: ALBINO/MALE,FEMALE, Target Tissue: Type of Lesion: KIDNEY: MESENCHYMAL TUMOR OR ADENOCARCINOMA, Dose [Carcinogen]: 75 MG/KG IN SALINE BY INTRAVENOUS INJECTION ONCE 21 D AFTER CONCEPTION): 11/40 (28%), 10/20 (50%), -79%, not calculated
- tumour outcome (control, treated, inhibition, significance) (Carcinogen: ETHYLNITROSOUREA, 759-73-9, Dose [Inhibitor]: 0, 500 MG/KG MIXED WITH STARCH 1:20 (WEIGHT: WEIGHT) IN DIET 5 D/WK FOR 10 MO (STUDY DURATION: 10 MO), Route [Inhibitor]: ORAL, Species: RAT, Strain/Sex: ALBINO/MALE,FEMALE, Target Tissue: Type of Lesion: NERVOUS SYSTEM: SCHWANNOMA, Dose [Carcinogen]: 75 MG/KG IN SALINE BY INTRAVENOUS INJECTION ONCE 21 D AFTER CONCEPTION): 19/40 (48%), 5/20 (25%), 48%, not calculated
- tumour outcome (control, treated, inhibition, significance) (Carcinogen: ETHYLNITROSOUREA, 759-73-9, Dose [Inhibitor]: 0, 500 MG/KG MIXED WITH STARCH 1:20 (WEIGHT: WEIGHT) IN DIET 5 D/WK FOR 10 MO (STUDY DURATION: 10 MO), Route [Inhibitor]: ORAL, Species: RAT, Strain/Sex: ALBINO/MALE,FEMALE, Target Tissue: Type of Lesion: SPINAL CORD: TUMOR, Dose [Carcinogen]: 75 MG/KG IN SALINE BY INTRAVENOUS INJECTION ONCE 21 D AFTER CONCEPTION): 17/40 (42%), 4/20 (20%), 52%, not calculated

Structure (SMILES): CCCCCCCCCCCCCCCCCC(=O)O
- tumour outcome (control, treated, inhibition, significance) (Carcinogen: BENZO[A]PYRENE, 50-32-8, Dose [Inhibitor]: 4 MG IN 0.2 ML ACETONE 3/WK ADMINISTERED SIMULTANEOUSLY WITH CARCINOGEN FOR DURATION OF STUDY (STUDY DURATION: 440 D), Route [Inhibitor]: DERMAL, Species: MOUSE, Strain/Sex: ICR/FEMALE, Target Tissue: Type of Lesion: SKIN: PAPILLOMA, Dose [Carcinogen]: 5 UG IN 0.2 ML ACETONE THAT ALSO CONTAINED AGENT 3/WK, Promoter: NONE USED): 16/50 (32%), 25/50 (50%), -56%, not calculated
- tumour outcome (control, treated, inhibition, significance) (Carcinogen: BENZO[A]PYRENE, 50-32-8, Dose [Inhibitor]: 4 MG IN 0.2 ML ACETONE 3/WK ADMINISTERED SIMULTANEOUSLY WITH CARCINOGEN FOR DURATION OF STUDY (STUDY DURATION: 440 D), Route [Inhibitor]: DERMAL, Species: MOUSE, Strain/Sex: ICR/FEMALE, Target Tissue: Type of Lesion: SKIN: SQUAMOUS CARCINOMA, Dose [Carcinogen]: 5 UG IN 0.2 ML ACETONE THAT ALSO CONTAINED AGENT 3/WK, Promoter: NONE USED): 12/50 (24%), 7/50 (14%), 42%, not calculated
